# Assay results published in patent US4069035A, “1-(2-Carboxyaryl)-3-aryl-1,2,4-triazoles and use as herbicides” (E. I. Du Pont de Nemours and Company, priority 1976, dated 1978).
# Tests used:
# [1] = pKa by titration against aqueous NaOH (half neutralization point), buffer range; format: physicochemical; settings: for pKa: dimethylsulfoxide/water, 0.09995N NaOH, half neutralization point; for Buffer Range: range 1 acid:10 salt to 10 acid:1 salt
# Protocol: The selected acids listed in Table IX (65-84 mg samples, weighed accurately) were respectively dissolved in a mixture of dimethylsulfoxide (25 ml) and water (10-25 ml) and titrated against 0.09995N aqueous sodium hydroxide using an automatic titrimeter (Metrohm Potentiograph Model E 336). According to the general theory of buffer solutions (A. I. Vogel, "A Textbook of Quantitative Inorganic Analysis, Theory and Practice," Longmans, Green, London (1948)), the following relationship exists in a dilute solution (0.05-0.2M) of a weak acid to which small additions of acid or base are made
# pH = pKa + log [Salt]/[Acid]
# The pH of the solution is mainly determined by the pKa of the acid, and in general the buffering capacity (ability to withstand pH change upon addition of acid or base) is maintained within the range 1 acid:10 salt to 10 acid:1 salt, a hundred-fold variation of concentration, or a change of two pH units. The buffer ranges of each of the acids is shown in the third column of Table IX. The acids are useful as buffers in weakly acidic solutions.
# bush beans = assay: postemergence plant growth test; format: in vivo; settings: 2k/ha
# Text: (§1) The imidazole and triazole compounds of the invention are useful as plant growth modifiers when applied to plants. The compounds are applied to the immediate area where the plant is developing and growing, including preemergence and postemergence application.
# cocklebur [2] = assay: postemergence plant growth test; format: in vivo; settings: 2k/ha
# Text: as §1
# nutsedge [3] = assay: postemergence plant growth test; format: in vivo; settings: 2k/ha
# Text: as §1
# wheat [4] = assay: postemergence plant growth test; format: in vivo; settings: 2k/ha
# Text: as §1
# sorghum [5] = assay: postemergence plant growth test; format: in vivo; settings: 2k/ha
# Text: as §1
# cassia [6] = assay: postemergence plant growth test; format: in vivo; settings: 2k/ha
# Text: as §1
# morning glory [7] = assay: postemergence plant growth test; format: in vivo; settings: 2k/ha
# Text: as §1
# wild oats [8] = assay: postemergence plant growth test; format: in vivo; settings: 2k/ha
# Text: as §1
# rice [9] = assay: postemergence plant growth test; format: in vivo; settings: 2k/ha
# Text: as §1
# corn [10] = assay: postemergence plant growth test; format: in vivo; settings: 2k/ha
# Text: as §1
# soybeans [11] = assay: postemergence plant growth test; format: in vivo; settings: 2k/ha
# Text: as §1
# cocklebur [12] = assay: preemergence plant growth test; format: in vivo; settings: 2k/ha
# Text: as §1
# nutsedge [13] = assay: preemergence plant growth test; format: in vivo; settings: 2k/ha
# Text: as §1
# wheat [14] = assay: preemergence plant growth test; format: in vivo; settings: 2k/ha
# Text: as §1
# barnyard grass [15] = assay: preemergence plant growth test; format: in vivo; settings: 2k/ha
# Text: as §1
# cassia [16] = assay: preemergence plant growth test; format: in vivo; settings: 2k/ha
# Text: as §1
# morning glory [17] = assay: preemergence plant growth test; format: in vivo; settings: 2k/ha
# Text: as §1
# wild oats [18] = assay: preemergence plant growth test; format: in vivo; settings: 2k/ha
# Text: as §1
# crabgrass = assay: preemergence plant growth test; format: in vivo; settings: 2k/ha
# Text: as §1
# rice [19] = assay: preemergence plant growth test; format: in vivo; settings: 2k/ha
# Text: as §1
# corn [20] = assay: preemergence plant growth test; format: in vivo; settings: 2k/ha
# Text: as §1
# soybeans [21] = assay: preemergence plant growth test; format: in vivo; settings: 2k/ha; for epinastic response: soybeans
# Text: as §1
# cotton = assay: postemergence plant growth test; format: in vivo; settings: 2k/ha
# Text: as §1
# sorghum [22] = assay: preemergence plant growth test; format: in vivo; settings: 2k/ha
# Text: as §1
# barnyard grass [23] = assay: postemergence plant growth test; format: in vivo; settings: 2k/ha
# Text: as §1
pKa [1],Buffer Range [1],Structure (SMILES),epinastic response (bush beans),epinastic response (cocklebur [2]),epinastic response (sorghum [5]),epinastic response (cassia [6]),epinastic response (morning glory [7]),epinastic response (rice [9]),epinastic response (corn [10]),epinastic response (soybeans [11]),epinastic response (wheat [14]),epinastic response (cassia [16]),epinastic response (rice [19]),epinastic response (corn [20]),epinastic response (soybeans [21]),epinastic response (cotton),axillary stimulation (soybeans [11]),epinastic response (sorghum [22]),epinastic response (wild oats [18]),epinastic response (nutsedge [13]),also measured
6.19,5.2 - 7.2 pH Units,"O=C(O)c1ccccc1-n1cnc(-c2ccc(Cl)c(Cl)c2)n1 [Example 7, 1-(2-carboxyphenyl)-3-(3,4-dichlorophenyl)-,2,4-triazole]",–,–,–,–,–,–,–,–,epinastic responses,epinastic responses,epinastic responses,epinastic responses,–,–,–,epinastic responses,epinastic responses,epinastic responses,–
5.48,4.5 - 6.5 pH Units,"O=C(O)c1ccccc1-n1cnc(-c2ccc(Cl)cc2)n1 [Example 6, 1-(2-carboxyphenyl)-3-(4-chlorophenyl)-1,2,4-triazole]",–,–,–,–,–,–,–,–,epinastic responses,epinastic responses,epinastic responses,epinastic responses,–,–,–,epinastic responses,epinastic responses,epinastic responses,–
4.81,3.8 - 5.8 pH Units,"Cc1ccc(-c2ncn(-c3ccccc3C(=O)O)n2)cc1 [Example 9, 1-(2-carboxyphenyl)-3-(4-methylphenyl)-1,2,4-triazole]",–,epinastic response,epinastic response,epinastic response,epinastic response,epinastic response,–,–,–,epinastic response,epinastic response,–,–,–,–,epinastic response,–,epinastic response,growth (bush beans): retarded; epinastic response (nutsedge [3]): epinastic response; epinastic response (cocklebur [12]): epinastic response; epinastic response (morning glory [17]): epinastic response
4.73,3.7 - 5.7 pH Units,"COc1ccc(-c2ncn(-c3ccccc3C(=O)O)n2)cc1 [Example 8, 1-(2-carboxyphenyl)-3-(4-methoxyphenyl)-1,2,4-triazole]",–,–,–,–,–,–,–,–,epinastic responses,epinastic responses,epinastic responses,epinastic responses,–,–,–,epinastic responses,epinastic responses,epinastic responses,–

# Continued, compound first:
Structure (SMILES),pKa [1],Buffer Range [1],epinastic response (bush beans),epinastic response (cocklebur [2]),epinastic response (sorghum [5]),epinastic response (cassia [6]),epinastic response (morning glory [7]),epinastic response (rice [9]),epinastic response (corn [10]),epinastic response (soybeans [11]),epinastic response (wheat [14]),epinastic response (cassia [16]),epinastic response (rice [19]),epinastic response (corn [20]),epinastic response (soybeans [21]),epinastic response (cotton),axillary stimulation (soybeans [11]),epinastic response (sorghum [22]),epinastic response (wild oats [18]),epinastic response (nutsedge [13]),also measured
"O=C(O)c1ccccc1-n1cnc(-c2ccccc2)c1 [Example 1, 1-(2-carboxyphenyl)-4-phenylimidazole]",4.91,3.9 - 5.9 pH Units,epinastic response,epinastic response,epinastic response,epinastic response,epinastic response,epinastic response,epinastic response,epinastic response,very strong hormonal effect (epinastic response),very strong hormonal effect (epinastic response),very strong hormonal effect (epinastic response),very strong hormonal effect (epinastic response),very strong hormonal effect (epinastic response),–,–,–,–,–,growth (nutsedge [3]): retarded; epinastic response (wheat [4]): epinastic response; epinastic response (wild oats [8]): epinastic response; epinastic response (cocklebur [12]): very strong hormonal effect (epinastic response); emergence (nutsedge [13]): inhibited; epinastic response (barnyard grass [15]): very strong hormonal effect (epinastic response); epinastic response (morning glory [17]): very strong hormonal effect (epinastic response); emergence (wild oats [18]): inhibited; emergence (crabgrass): inhibited; emergence (soybeans [21]; soybean): inhibited
"O=C(O)c1ccccc1-n1cnc(-c2ccc(Cl)cc2)c1 [Example 2, 1-(2-carboxyphenyl)-4-(4-chlorophenyl)imidazole]",–,–,epinastic response,–,epinastic response,–,epinastic response,–,epinastic response,–,very strong response,–,very strong epinastic responses,very strong epinastic responses,very strong epinastic responses,epinastic response,strong axillary stimulation,very strong response,very strong response,–,epinastic response (crabgrass): very strong epinastic responses
"COc1ccc(-c2cn(-c3ccccc3C(=O)O)cn2)cc1 [Example 3, 1-(2-carboxyphenyl)-4-(4-methoxyphenyl)imidazole]",5.08,4.1 - 6.1 pH Units,epinastic response,epinastic response,epinastic response,epinastic response,–,epinastic response,epinastic response,epinastic response,–,–,–,–,–,epinastic response,axillary stimulation,–,–,–,axillary stimulation (barnyard grass [23]): axillary stimulation; axillary stimulation (cassia [6]): axillary stimulation
"Cc1ccc(-c2cn(-c3ccccc3C(=O)O)cn2)cc1 [Example 4, 1-(2-carboxyphenyl)-4-(4-methylphenyl)imidazole]",5.59,4.6 - 6.6 pH Units,epinastic response,–,epinastic response,–,epinastic response,–,epinastic response,–,moderate to strong response,–,very strong epinastic responses,very strong epinastic responses,very strong epinastic responses,epinastic response,strong axillary stimulation,moderate to strong response,moderate to strong response,–,epinastic response (crabgrass): very strong epinastic responses
"O=C(O)c1ccccc1-n1cnc(-c2ccccc2)n1 [Example 5, 1-(2-carboxyphenyl)-3-phenyl-1,2,4-triazole]",5.91,4.9 - 6.9 pH Units,–,–,epinastic response,–,–,epinastic response,–,epinastic response,–,–,–,–,–,–,–,–,–,–,epinastic response (nutsedge [3]): epinastic response; growth (wheat [4]): retarded; growth (barnyard grass [23]): retarded; growth (wild oats [8]): retarded
